Measured values as given in article PMC5196235 (International Journal for Parasitology: Drugs and Drug …, 2016).
Counter-ions that a name gives are not always drawn.

Columns and labels:
Asu-ACR-16 receptor [1] = target: T1, Asu-ACR-16 receptor (Ascaris suum, UniProt F1KYJ9); test: Two-electrode voltage clamp of Asu-ACR-16 expressed in Xenopus oocytes; assay type: cell-based; conditions: for effect at high concentration (response left out of the Hill fit): 30 μM 5-methylnicotine, 100 μM 6-methylnicotine, 300 μM homonicotine, 100 μM (S, R)-anabasine; for Hill slope (nH): Asu-ACR-16 in Xenopus oocytes, Hill equation fit, mean ± S.E.M., N = 5; for Emax: read-out: maximum response (Imax)
T1 sequence (F1KYJ9 1-504): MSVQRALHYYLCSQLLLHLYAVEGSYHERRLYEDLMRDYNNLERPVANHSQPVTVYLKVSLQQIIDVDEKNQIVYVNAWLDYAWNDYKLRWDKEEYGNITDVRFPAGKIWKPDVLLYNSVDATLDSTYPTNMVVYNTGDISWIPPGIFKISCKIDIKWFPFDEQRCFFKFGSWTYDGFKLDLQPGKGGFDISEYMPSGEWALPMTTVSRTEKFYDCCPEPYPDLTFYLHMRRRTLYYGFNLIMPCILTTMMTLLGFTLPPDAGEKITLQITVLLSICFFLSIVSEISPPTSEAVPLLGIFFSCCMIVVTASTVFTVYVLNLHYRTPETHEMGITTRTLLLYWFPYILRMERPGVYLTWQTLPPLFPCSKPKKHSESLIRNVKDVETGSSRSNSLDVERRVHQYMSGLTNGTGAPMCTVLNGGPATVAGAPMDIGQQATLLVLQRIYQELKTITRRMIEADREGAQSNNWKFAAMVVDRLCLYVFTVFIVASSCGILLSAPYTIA

Asu-ACR-16 receptor [2] = target: T1, Asu-ACR-16 receptor; conditions: ref Abongwa et al., 2016; cited from earlier work

Compound	sensitivity of the Asu-ACR-16 receptor to the agonist (Asu-ACR-16 receptor [2])	Hill slope (nH) (Asu-ACR-16 receptor [1])	also measured
anabasine [(S, R)-anabasine]	–	–	effect at high concentration (response left out of the Hill fit) (Asu-ACR-16 receptor [1]): inhibitory effect
CC(=O)OCC[N+](C)(C)C [ACh, acetylcholine]	sensitive	2.93 ± 0.13	–
(±)-nornicotine	–	3.25 ± 0.49	–
O=c1cccc2n1C[C@@H]1CNC[C@H]2C1 [cytisine]	sensitive	–	–
CN1CCCC1c1ccc(N)nc1.Cl.Cl (stereo not drawn) [6-AN, 5-(1-methyl-pyrrolidin-2-yl)-pyridin-2-ylamine dihydrochloride]	–	10.10 ± 0.15	agonist activity on Asu-ACR-16 (inward current) (Asu-ACR-16 receptor [1]; derivatives that elicited inward currents at 100 μM were classed as agonists): little agonist activity; Emax (Asu-ACR-16 receptor [1]): 6.29 ± 0.62%
Cc1cncc(C2CCCN2C)c1 (racemic) [5-methylnicotine, rac-5-methylnicotine]	–	2.09 ± 0.14	effect at high concentration (response left out of the Hill fit) (Asu-ACR-16 receptor [1]): inhibitory effects at high concentrations
CN1CCC[C@H]1c1cccnc1 [(S)-nicotine, (−)-nicotine hydrogen tartrate salt]	sensitive	3.39 ± 0.36	–
CN1CCC[C@H]1c1cncc(Br)c1 [(S)-5-bromonicotine]	–	2.46 ± 0.21	–
O=c1c(Br)ccc2n1C[C@@H]1CNC[C@H]2C1 [3-bromocytisine]	sensitive	–	–
C[N+]1(C)CCN(c2ccccc2)CC1.[I-] [DMPP, dimethyl-4-phenyllpiperazinium iodide]	sensitive	–	–
Clc1ccc(C2CC3CCC2N3)cn1 (stereo not drawn) [epibatidine]	sensitive	–	–
C#Cc1cncc([C@@H]2CCCN2C)c1 [(S)—SIB 1508Y]	–	0.94 ± 0.04	Emax (Asu-ACR-16 receptor [1]): 100 ± 4.36%
